Reference: patent publication US8268809B2, “Kinase inhibitors for preventing or treating pathogen infection and method of use thereof” (priority 2006, dated 2012)
“Also recorded” adds a separate entry of the source.
For VACCINIA PLAQUE ASSAY 2 in this document: test concentration or dose not given here.

These compounds were tested on vaccinia virus.
Assay type: cell-based
With `COc1ccccc1NS(=O)(=O)c1cccc(Nc2cc(-c3ccc(C(C)=O)cc3)ncn2)c1` [Eph2_wbz 110] the “Class category of infected monolayers in plaque assay” value (from here on “Class category of infected monolayers”) was “Class III”, the “Plaque phenotype due to drug treatment (FIGS. 1, 2, 4)” value (from here on “Plaque phenotype due”) was “pinpoint plaque formations; also recorded: pinpoint plaques” and the “VACCINIA PLAQUE ASSAY 2” value was “PINPOINT”. The “VACCINIA Plaque Assay” value was “PINPOINT PLAQUES”.
In the case of `Cc1ccc(-n2c(=O)[nH]c3c(C(N)=O)nc(-c4c(F)cc(Cl)cc4F)nc32)cc1` [dm-I-187], the “Class category of infected monolayers” value is reported as “Class III”, the “Plaque phenotype due” value is reported as “small plaques with no comets; also recorded: smaller (pinpoint) plaques with no comets” and the “VACCINIA PLAQUE ASSAY 2” value is reported as “NO PLAQUES”. The “VACCINIA Plaque Assay” value was “SMALL PLAQUES”.
For `O=C(Nc1cccc(-c2ccc3nnc(-c4cccs4)n3n2)c1)c1cccc([N+](=O)[O-])c1` [YYB32], the “Class category of infected monolayers” value was “Class III”, the “VACCINIA PLAQUE ASSAY 2” value was “SMALL PLAQUES” and the “VACCINIA Plaque Assay” value was “SMALLER PLAQUES”.
`Cc1ccc(NC(=O)c2ccc(CN3CCN(C)CC3)cc2)cc1Nc1nccc(-c2cnccc2C)n1` [StiAF3_Ue] was tested, and the “Class category of infected monolayers” value was “Class III”, the “VACCINIA PLAQUE ASSAY 2” value was “NO PLAQUES” and the “VACCINIA Plaque Assay” value was “NO PLAQUES”.
For `Cn1c(=O)c(-c2c(Cl)cccc2Cl)cc2cnc(Nc3cccc(N)n3)nc21` [YYA104], the “Class category of infected monolayers” value was “Class III”, the “VACCINIA PLAQUE ASSAY 2” value was “NO PLAQUES” and the “VACCINIA Plaque Assay” value was “PINPOINT PLAQUES”.
For `COc1cc(-c2cnc3c(Nc4ccccc4)nccn23)ccc1O` [LG2-62], the “Class category of infected monolayers” value was “Class II”, the “VACCINIA PLAQUE ASSAY 2” value was “SMALL PLAQUES” and the “VACCINIA Plaque Assay” value was “SMALLER PLAQUES THAN WT”.
For `COc1ccc(-c2n[nH]c3nc(-c4cccc(NC(C)=O)c4)ccc23)cc1` [APcK-101], the “Plaque phenotype due” value was “damaged monolayer”.
For `COc1cc(OC)cc(-c2cnc3c(NCC4CC4)nccn23)c1` [LG2-102], the “Class category of infected monolayers” value was “Class III”, the “VACCINIA PLAQUE ASSAY 2” value was “NO PLAQUES” and the “VACCINIA Plaque Assay” value was “NO PLAQUES”.
`CC(=O)Nc1ccc(-c2ccc3c(-c4ccc(Br)c(F)c4)n[nH]c3n2)cc1` [APcK-20] was tested, and the “VACCINIA PLAQUE ASSAY 2” value was “NO PLAQUES”.
`CC(=O)Nc1cccc(-c2ccc3c(-c4ccc(Br)cc4F)n[nH]c3n2)c1` [APcK-41] was tested, and the “VACCINIA PLAQUE ASSAY 2” value was “NO PLAQUES”.
`COc1ccccc1NS(=O)(=O)c1cccc(Nc2cc(-c3ccc([N+](=O)[O-])cc3)ncn2)c1` [Eph2_wbz 103] was tested, and the “Class category of infected monolayers” value was “Class III”, the “VACCINIA PLAQUE ASSAY 2” value was “PINPOINT” and the “VACCINIA Plaque Assay” value was “NO PLAQUES”.
In the case of `Cc1ccc(-n2c(=O)[nH]c3c(C(N)=O)nc(-c4c(Cl)cccc4[N+](=O)[O-])nc32)cc1` [dm-I-193], the “Class category of infected monolayers” value is reported as “Class III”, the “VACCINIA PLAQUE ASSAY 2” value is reported as “NO PLAQUES” and the “VACCINIA Plaque Assay” value is reported as “SMALL PLAQUES”.
In the case of `Cn1c(=O)c(-c2c(Cl)cccc2Cl)cc2cnc(Nc3ccc(Br)cc3)nc21` [PD-Br], the “Class category of infected monolayers” value is reported as “Class III”, the “VACCINIA PLAQUE ASSAY 2” value is reported as “NO PLAQUES” and the “VACCINIA Plaque Assay” value is reported as “SMALL PLAQUES, CPE”.
With `Brc1cnc2c(NCc3cccs3)nccn12` [LG2-95] the “Class category of infected monolayers” value was “Class III”, the “VACCINIA PLAQUE ASSAY 2” value was “NO PLAQUES” and the “VACCINIA Plaque Assay” value was “PINPOINT PLAQUES”.
With `O=C1NC(=O)/C(=C/c2ccc3nccnc3c2)S1` [AS-604240, reference compound] the “Class category of infected monolayers” value was “Class III”, the “VACCINIA PLAQUE ASSAY 2” value was “PINPOINT PLAQUES” and the “VACCINIA Plaque Assay” value was “PINPOINT PLAQUES”.
In the case of `CCOC(=O)c1ccc(-c2ccc3c(-c4ccc(C(=O)OC)cc4)n[nH]c3n2)cc1` [APcK-32], the “Plaque phenotype due” value is reported as “small plaque and large comets; also recorded: small plaques with large comets” and the “VACCINIA Plaque Assay” value is reported as “LARGE COMETS”.
For `Cc1ccc(-c2n[nH]c3nc(-c4ccc(C(=O)c5ccccc5)cc4)ccc23)cc1F` [APcK-37], the “VACCINIA PLAQUE ASSAY 2” value was “SMALL PLAQUES”.
`CC(=O)Nc1ccc(-c2ccc3c(-c4ccc(C)c(F)c4)n[nH]c3n2)cc1` [APcK-28] was tested, and the “VACCINIA PLAQUE ASSAY 2” value was “SMALL PLAQUES”.
For `Cc1ccc(-n2c(=O)[nH]c3c(C(N)=O)nc(-c4ccc(-c5cccs5)s4)nc32)cc1` [dm-I-184], the “VACCINIA PLAQUE ASSAY 2” value was “SLIGHTLY SMALLER PLAQUES”.
For `O=C(Nc1cccc(-c2ccc3nnc(-c4ccc[nH]4)n3n2)c1)c1cccc([N+](=O)[O-])c1` [YYB34], the “VACCINIA Plaque Assay” value was “LARGE COMETS”.
`Cc1ccc(-n2c(=O)[nH]c3c(C(N)=O)nc(C4CCCCC4)nc32)cc1` [dm-I-203] was tested, and the “Class category of infected monolayers” value was “Class III”, the “VACCINIA PLAQUE ASSAY 2” value was “PINPOINTS” and the “VACCINIA Plaque Assay” value was “SMALL PLAQUES”.
With `COc1ccccc1NS(=O)(=O)c1cccc(Nc2cc(-c3ccc(NC(=O)CCC(=O)O)cc3)ncn2)c1` [Eph2_wbz 117] the “Class category of infected monolayers” value was “Class III”, the “VACCINIA PLAQUE ASSAY 2” value was “SMALL PLAQUES; COMETS?” and the “VACCINIA Plaque Assay” value was “NO PLAQUES”.
For `CN(C)CCNC(=O)c1ccc(-c2cnc3c(Nc4ccc(Oc5ccccc5)cc4)nccn23)cc1` [LG2-11], the “Class category of infected monolayers” value was “Class III”, the “VACCINIA PLAQUE ASSAY 2” value was “NO PLAQUES” and the “VACCINIA Plaque Assay” value was “CPE, PINPOINT PLAQUES”.
With `COc1ccccc1Nc1cc(-c2ccc(NC(C)=O)cc2)ncn1` [Eph2_wbz 206] the “Class category of infected monolayers” value was “Class II”, the “Plaque phenotype due” value was “small plaques with comets” and the “VACCINIA PLAQUE ASSAY 2” value was “SMALL PLAQUES”. The “VACCINIA Plaque Assay” value was “SMALL PLAQUES, COMETS?”.
With `Cn1c(=O)c(-c2c(Cl)cccc2Cl)cc2cnc(Nc3cccc(C(C)(C)C)c3)nc21` [YYA195] the “Class category of infected monolayers” value was “Class III”, the “VACCINIA PLAQUE ASSAY 2” value was “NO PLAQUES” and the “VACCINIA Plaque Assay” value was “NO PLAQUES”.
For `CCOC(=O)c1ccc(-c2n[nH]c3nc(-c4cccc(NC(C)=O)c4)ccc23)cc1` [APcK-105], the “Class category of infected monolayers” value was “Class III”, the “Plaque phenotype due” value was “no pinpoint plaque formed; also recorded: no plaques” and the “VACCINIA PLAQUE ASSAY 2” value was “PINPOINT PLAQUES”. For the same compound, the “VACCINIA Plaque Assay” value was “NO PLAQUES”.
`CCOC(=O)c1ccc(-c2ccc3c(-c4ccc(Cl)c(F)c4)n[nH]c3n2)cc1` [APcK-49] was tested, and the “VACCINIA PLAQUE ASSAY 2” value was “SMALL PLAQUES”.
For `O=C(NCCO)c1cccc(-c2cnc3c(NCc4ccc(F)cc4)nccn23)c1` [LG2-96], the “Class category of infected monolayers” value was “Class III”, the “Plaque phenotype due” value was “no pinpoint plaque formed; also recorded: no plaques” and the “VACCINIA PLAQUE ASSAY 2” value was “NO PLAQUES”. The “VACCINIA Plaque Assay” value was “NO PLAQUES”.
